One series relates to P. falciparum Dd2. The series can be described thus: Anti-plasmodial growth inhibition, SYBR green I-based DNA quantification. It is filed as cell-based. The conditions noted are these: Plasmodium falciparum, 72 h incubation, n=3. As to the method:
(§1) Select compounds described herein were evaluated for structure-activity analyses for anti-plasmodial activity in vitro. For Dd2 EC50 (M), calculations were for n=3. For HepG2 EC50 (M), calculations were for n=1. For the human microsomal stability determination, t was 60 minutes.
Different dilutions of the compound in RPMI 1640 (Life Technologies) from a stock of 10 mM in dimethyl sulfoxide (DMSO) were added to the culture at a 1% parasitemia and 2% hematocrit in 96-well black plates (Santa Cruz Biotechnology). Maximum DMSO concentration in the culture never exceeded 0.25%. Chloroquine at 1 μM was used as a positive control to determine the baseline value. Following 72 h incubation at 37° C., the ability of the compounds to inhibit growth of the parasite was determined by a SYBR green I-based DNA quantification assay (See Bennett et al., 2004, Chemother. 48, 1807-1810; see also Johnson et al., 2007, Antimicrob. Agents. Chemother. 51, 1926-1933; Smilkstein et al., 2004, Antimicrob. Agents. Chemother. 48, 1803-1806). EC50 was calculated (n=3) from a dose response curve that was generated from a concentration range of 0-20 μM using GraphPad Prism v5.0.

Series [1] relates to HepG2 human hepatoma cells. As to the kind of experiment: HepG2 cytotoxicity, MTS cell proliferation assay. It is filed as cell-based. The settings on record: 48 h, n=1. As to the method:
as §1
Selected compounds were evaluated for cytotoxicity using HepG2 human hepatoma cells. A 384-well clear bottom plate was seeded with 2,500 cells/well and incubated for 24 h. Serial dilutions of the compound (were added to the plate and plates were incubated for an additional 48 h. Viability of cells were assessed by MTS [(3-(4,5-dimethylthiazol-2-yl)-5-(3-carboxymethoxyphenyl)-2-(4-sulfophenyl)-2H-tetrazolium) cell proliferation assay (CellTiter 96® Aqueous non-radioactive cell proliferation assay, Promega) (See Cory et al., Cancer Communications, 3, 1991, p. 207-212).

A short description of series [2]: Plasma pharmacokinetics and liver distribution study in female BALB/c mice. It is filed as in vivo, mouse. The conditions noted are these: for AUC(0-inf) / Tmax / half-life / Cmax: female, BALB/c, mouse. As to the method: A plasma pharmacokinetics and liver distribution study of selected compounds, including Pyrrolopyridine-008 (2015-foleyc-216), Pyrrolopyridine-D20-ent (2015-foleyc-217), and Pyrrolopyridine-M03 (2015-foleyc-218), in female BALB/c mice was conducted following a single intraperitoneal and oral administration. […] The blood samples were collected from a set of […] mice at each time point in labeled micro centrifuge tube containing K2EDTA as anticoagulant. Plasma samples were separated by centrifugation at 4000 rpm for 10 min and stored below −70° C. until bioanalysis. After collection of blood sample, animals were humanely euthanized by carbon dioxide asphyxiation to collect liver from Group 1 and Group 2 at all the time points. The collected tissues were rinsed in PBS and were homogenized with nine times of liver weight in ice cold phosphate buffer saline (pH 7.4) and stored below −70° C. until bio-analysis. Total homogenate volume was ten times the tissue weight. All samples were processed for analysis by protein precipitation using acetonitrile and analyzed with fit-for-purpose LC-MS/MS method (LLOQ: 2.01 ng/mL for plasma and 50.30 ng/g for liver). Pharmacokinetic parameters were calculated using the non-compartmental analysis tool of Phoenix WinNonlin® (Version 6.3).

The mark [3] stands for this setting: ip, Dose: 100 mg/kg, liver, read-out: PK (ip, plasma/liver) AUCinf, liver.
The mark [4] stands for this setting: ip, Dose: 100 mg/kg, liver, read-out: PK (ip, plasma/liver) Tmax, liver.
The mark [5] stands for this setting: ip, Dose: 100 mg/kg, liver, read-out: PK (ip, plasma/liver) t1/2, liver (converted).
[6] abbreviates: ip, Dose: 100 mg/kg, plasma, read-out: PK (ip, plasma/liver) AUCinf, plasma.
Setting [7] is: ip, Dose: 100 mg/kg, plasma, read-out: PK (ip, plasma/liver) Cmax, plasma.
[8] abbreviates: ip, Dose: 100 mg/kg, plasma, read-out: PK (ip, plasma/liver) Tmax, plasma.
[9] abbreviates: ip, Dose: 100 mg/kg, plasma, read-out: PK (ip, plasma/liver) t1/2, plasma (converted).
Where [10] appears, read: po, Dose: 100 mg/kg, liver, read-out: PK (po, plasma/liver) Area under the curve (AUCinf), liver.
Setting [11] is: po, Dose: 100 mg/kg, liver, read-out: PK (po, plasma/liver) Tmax, liver.
Where [12] appears, read: po, Dose: 100 mg/kg, liver, read-out: PK (po, plasma/liver) t1/2, liver (converted).
Where [13] appears, read: po, Dose: 100 mg/kg, plasma, read-out: PK (po, plasma/liver) Area under the curve (AUCinf), plasma.
The mark [14] stands for this setting: po, Dose: 100 mg/kg, plasma, read-out: PK (po, plasma/liver) Cmax, plasma.
Where [15] appears, read: po, Dose: 100 mg/kg, plasma, read-out: PK (po, plasma/liver) Tmax, plasma.
[16] abbreviates: po, Dose: 100 mg/kg, plasma, read-out: PK (po, plasma/liver) t1/2, plasma (converted).

Molecules are shown by their SMILES. Where two headings read alike, the source gives them in different places.

Regarding `CC(C)(C)[S@@+]([O-])N1Cc2cc(C(=O)NCc3ccc4c(c3)OCO4)nc(-c3cccc(-c4cccnc4)c3)c2C1` [2015-foleyc-212, (R)-N-(benzo[d][1,3]dioxol-5-ylmethyl)-2-(tert-butylsulfinyl)-4-(3-(pyridin-3-yl)phenyl)-2,3-dihydro-1H-pyrrolo[3,4-c]pyridine-6-carboxamide], the EC50 in the series on P. falciparum Dd2 was over 25 µM; in series [1] it was over 100 µM.
`CC(C)(C)[S@@+]([O-])N1Cc2cc(C(=O)NCc3ccccc3F)nc(-c3cccc(-c4cccnc4)c3)c2C1` [2015-foleyc-213, (R)-2-(tert-butylsulfinyl)-N-(2-fluorobenzyl)-4-(3-(pyridin-3-yl)phenyl)-2,3-dihydro-1H-pyrrolo[3,4-c]pyridine-6-carboxamide]: the EC50 in the series on P. falciparum Dd2 is over 25 µM; in series [1], over 100 µM.
For the molecule `CC(C)(C)[S@@+]([O-])N1Cc2cc(C(=O)NCc3ccc4c(c3)OCO4)nc(-c3cccc(-c4cc5ccccc5o4)c3)c2[C@H]1CCO` [2015-foleyc-219, (R)-N-(benzo[d][1,3]dioxol-5-ylmethyl)-4-(3-(benzofuran-2-yl)phenyl)-2-((R)-tert-butylsulfinyl)-3-(2-hydroxyethyl)-2,3-dihydro-1H-pyrrolo[3,4-c]pyridine-6-carboxamide], the EC50 with P. falciparum Dd2 was 1.39 ± 0.13 µM; in series [1], over 100 µM.
For `CC(C)(C)[S@@+]([O-])N1Cc2cc(C(=O)NCc3ccccc3F)nc(-c3cccc(-c4cc5ccccc5o4)c3)c2[C@H]1CCO` [2015-foleyc-220, (R)-4-(3-(benzofuran-2-yl)phenyl)-2-((R)-tert-butylsulfinyl)-N-(2-fluorobenzyl)-3-(2-hydroxyethyl)-2,3-dihydro-1H-pyrrolo[3,4-c]pyridine-6-carboxamide] the same measures were over 25 µM and over 100 µM.
For the molecule `CC(C)(C)[S@@+]([O-])N1Cc2cc(C(=O)NCC(F)(F)F)nc(-c3cccc(-c4cc5ccccc5o4)c3)c2[C@H]1CCO` [2015-foleyc-226, (R)-4-(3-(benzofuran-2-yl)phenyl)-2-((R)-tert-butylsulfinyl)-3-(2-hydroxyethyl)-N-(2,2,2-trifluoroethyl)-2,3-dihydro-1H-pyrrolo[3,4-c]pyridine-6-carboxamide], the EC50 in the series on P. falciparum Dd2 is over 25 µM; in series [1] it was over 100 µM.
Turning to `CC(C)NC(=O)N1Cc2cc(C(=O)NCC(F)(F)F)nc(-c3cccc(-c4cc5ccccc5o4)c3)c2[C@H]1CCO` [drawing 328], in series [2] (Dose: 50 mg/kg), the “Relative Bioavailability, Frel (AUCinf po / AUCinf ip)” value is recorded as 57%. Besides, the AUC(0-inf) came out at 186 µM·h in series [2] (ip, Dose: 50 mg/kg, liver, read-out: PK (ip, plasma/liver) AUCinf, liver); 52.7 µM·h in series [2] (ip, Dose: 50 mg/kg, plasma, read-out: PK (ip, plasma/liver) AUCinf, plasma); 108 µM·h in series [2] (po, Dose: 50 mg/kg, liver, read-out: PK (po, plasma/liver) Area under the curve (AUCinf), liver); 29.9 µM·h in series [2] (po, Dose: 50 mg/kg, plasma, read-out: PK (po, plasma/liver) Area under the curve (AUCinf), plasma). Moreover, the Tmax in series [2] (ip, Dose: 50 mg/kg, liver, read-out: PK (ip, plasma/liver) Tmax, liver) stood at 0.1 h; in series [2] (ip, Dose: 50 mg/kg, plasma, read-out: PK (ip, plasma/liver) Tmax, plasma), 1 h; in series [2] (po, Dose: 50 mg/kg, liver, read-out: PK (po, plasma/liver) Tmax, liver), 0.25 h; in series [2] (po, Dose: 50 mg/kg, plasma, read-out: PK (po, plasma/liver) Tmax, plasma) it was 0.25 h. Besides, the half-life in series [2] (ip, Dose: 50 mg/kg, liver, read-out: PK (ip, plasma/liver) t1/2, liver (converted)) is 2.2 h; in series [2] (ip, Dose: 50 mg/kg, plasma, read-out: PK (ip, plasma/liver) t1/2, plasma (converted)), 1.2 h; in series [2] (po, Dose: 50 mg/kg, liver, read-out: PK (po, plasma/liver) t1/2, liver (converted)) it was 3.1 h; in series [2] (po, Dose: 50 mg/kg, plasma, read-out: PK (po, plasma/liver) t1/2, plasma (converted)) it was 8.2 h. The Cmax was determined as 14 µM in series [2] (ip, Dose: 50 mg/kg, plasma, read-out: PK (ip, plasma/liver) Cmax, plasma) and 10.9 µM in series [2] (po, Dose: 50 mg/kg, plasma, read-out: PK (po, plasma/liver) Cmax, plasma). Moreover, the “PK (ip, plasma/liver) Cmax, liver” value in series [2] (ip, Dose: 50 mg/kg, liver) came to 58.6 µM. Also, the “PK (po, plasma/liver) Cmax, liver” value in series [2] (po, Dose: 50 mg/kg, liver) was 53.8 µM.
For `CC(C)(C)[S@@+]([O-])N1Cc2cc(C(=O)NCc3ccc4c(c3)OCO4)nc(-c3cccc(-c4cccnc4)c3)c2[C@H]1CCO` [drawing 329], the “Relative Bioavailability, Frel (AUCinf po / AUCinf ip)” value in series [2] (Dose: 100 mg/kg) is on record as 49%. Also, the AUC(0-inf) in series [2] (setting [3]) was determined as 667 µM·h; in series [2] (setting [6]), 158 µM·h; in series [2] (setting [10]), 238 µM·h; in series [2] (setting [13]), 77.1 µM·h. The Tmax was 0.5 h in series [2] (setting [4]), 0.5 h in series [2] (setting [8]), 4 h in series [2] (setting [11]) and 1 h in series [2] (setting [15]). Also, the half-life was 3.5 h in series [2] (setting [5]), 2.4 h in series [2] (setting [9]), 16.9 h in series [2] (setting [12]) and 1.1 h in series [2] (setting [16]). The Cmax stood at 33.4 µM in series [2] (setting [7]) and 27.6 µM in series [2] (setting [14]). For the same molecule, the “PK (ip, plasma/liver) Cmax, liver” value in series [2] (ip, Dose: 100 mg/kg, liver) was found to be 87.6 µM. Moreover, in series [2] (po, Dose: 100 mg/kg, liver), the “PK (po, plasma/liver) Cmax, liver” value was found to be 39.6 µM.
As to `CC(C)(C)[S@@+]([O-])N1Cc2cc(C(=O)NCc3ccccc3F)nc(-c3cccc(-c4cccnc4)c3)c2[C@H]1CCO` [drawing 330], the “Relative Bioavailability, Frel (AUCinf po / AUCinf ip)” value in series [2] (Dose: 100 mg/kg) came to 22%. Moreover, the AUC(0-inf) in series [2] (setting [3]) was 306 µM·h; in series [2] (setting [6]) it was 168 µM·h; in series [2] (setting [10]), 125 µM·h; in series [2] (setting [13]), 36.7 µM·h. The Tmax in series [2] (setting [4]) is 0.25 h; in series [2] (setting [8]), 1 h; in series [2] (setting [11]), 0.5 h; in series [2] (setting [15]), 0.5 h. For the same molecule, the half-life in series [2] (setting [5]) was 4.6 h; in series [2] (setting [9]), 1.9 h; in series [2] (setting [12]) it was 6.4 h; in series [2] (setting [16]) it was 2.1 h. For the same molecule, the results for the Cmax in series [2] (setting [7]) and in series [2] (setting [14]) were 72.6 µM and 56.4 µM, respectively. Besides, the “PK (ip, plasma/liver) Cmax, liver” value in series [2] (ip, Dose: 100 mg/kg, liver) amounted to 111.3 µM. In addition, the “PK (po, plasma/liver) Cmax, liver” value in series [2] (po, Dose: 100 mg/kg, liver) came out at 49.2 µM.
For the molecule `CC(C)(C)[S@+]([O-])N1Cc2cc(C(=O)NCc3ccc4c(c3)OCO4)nc(-c3cccc(-c4cccnc4)c3)c2[C@@H]1CCO` [ent-Tan003-008], the half-maximal effective concentration (EC50) in the series with P. falciparum Dd2 is 0.86 ± 0.08 µM.

Values taken from patent US12071436B2, “Anti-parasitic compounds and uses thereof” (Memorial Sloan-Kettering Cancer Center, priority 2016, dated 2024).
